Reference: patent US12029217B2, “Safened compositions comprising pyridine carboxylate herbicides and isoxadifen” (Corteva Agriscience LLC, priority 2018, dated 2024)

Columns and labels:
Type in all cases: in vivo
[1] = tested on: Leptochloa chinensis (Chinese sprangletop); assay: Greenhouse postemergence visual injury, Chinese sprangletop (LEFCH); conditions: Example 6
Text: (§1) Seeds of the desired test plant species were planted in a 90:10% v/v (volume/volume) mixture of PRO-MIX® BX (Premier Tech Horticulture, Quakertown, PA, USA) and PROFILE® GREENS GRADE™ (Profile Products LLC, Buffalo Grove, IL, USA) planting mixture, which typically has a pH of 5.2 to 6.2 and an organic matter content of at least 50 percent, in plastic pots with a surface area of 103.2 square centimeters (cm^2). When required to ensure good germination and healthy plants, a fungicide treatment and/or other chemical or physical treatment was applied. The plants were grown for 7-36 days (d) in a greenhouse with an approximate 14-hour (h) photo-period which was maintained at about 23° C. during the day and 22° C. during the night. Nutrients and water were added on a regular basis and supplemental lighting was provided with overhead metal halide 1000-Watt lamps as necessary. The plants were employed for testing when they reached the second or third true leaf stage.
(§2) Emulsifiable concentrates of each of each pyridine carboxylate herbicide (Compound A or Compound B) were prepared at 100 grams acid equivalent per liter (g ae/L). An aliquot of each emulsifiable concentrate was placed in a 25 mL glass vial and diluted with an aqueous mixture of 1.25% (v/v) ACTIROB® B esterified rapeseed oil (Bayer Crop Science, Research Triangle Park, NC, USA) or MSO® Concentrate with LECI-TECH® methylated soybean oil (Loveland Products, Loveland, CO, USA) to obtain concentrated stock solutions at the highest application rate for each herbicide, based upon a 12 milliliter (mL) application volume at a rate of 187 liters per hectare (L/ha). The concentrated stock solutions were further diluted with an aqueous mixture of 1.25% v/v ACTIROB® B or MSO® Concentrate with LECI-TECH® to obtain stock solutions at reduced application rates for each herbicide. Spray solutions of the herbicide combinations (Compound A or Compound B plus safener) were prepared by adding weighed amounts or aliquots of the safener to the stock solutions of Compound A or Compound B to form 12-mL spray solutions in two-way combinations.
(§3) The spray solutions were applied to the plant material with an overhead Mandel track sprayer equipped with 8002E nozzles calibrated to deliver 187 L/ha over an application area of 0.503 square meters (m^2) at a spray height of 18 inches (43 centimeters (cm)) above the average plant canopy. […]
(§4) The treated plants and control plants were placed in a greenhouse as described above and watered by sub-irrigation to prevent wash-off of the test compounds. After 20-22 d, the condition of the test plants as compared with that of the control plants was determined visually and scored on a scale of 0 to 100 percent where 0 corresponds to no injury and 100 corresponds to complete kill.

[2] = tested on: Cirsium arvense (Canada thistle); assay: Greenhouse postemergence visual injury, Canada thistle (CIRAR); conditions: Example 6
Text: as §1, §2, §3, §4

[3] = tested on: Viola tricolor (wild pansy); assay: Greenhouse postemergence visual injury, wild pansy (VIOTR); conditions: Example 6
Text: as §1, §2, §3, §4

[4] = tested on: Hordeum vulgare (spring barley); assay: Greenhouse postemergence visual injury, spring barley (HORVS)
Text: as §1, §2
(§5) The spray solutions were applied to the plant material with an overhead Mandel track sprayer equipped with 8002E nozzles calibrated to deliver 187 L/ha over an application area of 0.503 square meters (m^2) at a spray height of 18 inches (43 centimeters (cm)) above the average plant canopy. Control plants were sprayed in the same manner with the solvent blank. All herbicide (component a) application rates are given as “g ae/ha” and all safener (component b) application rates are given as “g ai/ha.”
as §4

[5] = tested on: Eleusine indica (goosegrass); assay: Greenhouse postemergence visual injury, goosegrass (ELEIN); conditions: Example 7
Text: as §1, §2, §3, §4

[6] = tested on: Kochia scoparia (herbicide-resistant kochia); assay: Greenhouse postemergence visual injury, herbicide-resistant kochia (KCHSC-R); conditions: Example 6
Text: as §1, §2, §3, §4

[7] = tested on: Digitaria sanguinalis (large crabgrass); assay: Greenhouse postemergence visual injury, large crabgrass (DIGSA)
Text: as §1, §2, §5, §4

[8] = tested on: Amaranthus palmeri (glyphosate-resistant Palmer amaranth); assay: Greenhouse postemergence visual injury, glyphosate-resistant Palmer amaranth (AMAPA-Gly); conditions: Example 7
Text: as §1, §2, §3, §4

[9] = tested on: Setaria faberi (giant foxtail); assay: Greenhouse postemergence visual injury, giant foxtail (SETFA)
Text: as §1, §2, §5, §4

[10] = tested on: Salsola kali (Russian thistle); assay: Greenhouse postemergence visual injury, Russian thistle (SASKR); conditions: Example 1
Text: as §1, §2, §3, §4

[11] = tested on: Sorghum vulgare (sorghum); assay: Greenhouse postemergence visual injury, sorghum (SORVU); conditions: Example 5
Text: as §1, §2, §5, §4

[12] = tested on: Polygonum convolvulus (wild buckwheat); assay: Greenhouse postemergence visual injury, wild buckwheat (POLCO); conditions: Example 6
Text: as §1, §2, §3, §4

Avena fatua (wild oat) = assay: Greenhouse postemergence visual injury, wild oat (AVEFA); conditions: Example 6
Text: as §1, §2, §3, §4

Zea mays (maize) = assay: Greenhouse postemergence visual injury, maize (ZEAMX)
Text: as §1, §2, §5, §4

[13] = tested on: Matricaria chamomilla (wild chamomile); assay: Greenhouse postemergence visual injury, wild chamomile (MATCH); conditions: Example 1
Text: as §1, §2, §3, §4

[14] = tested on: Echinochloa crus-galli (barnyardgrass); assay: Greenhouse postemergence visual injury, barnyardgrass (ECHCG)
Text: as §1, §2, §5, §4

[15] = tested on: Saccharum officinarum (sugarcane); assay: Greenhouse postemergence visual injury, sugarcane (SACOF); conditions: Example 3
Text: as §1, §2, §5, §4

[16] = isoxadifen-ethyl 10 g/ha, Example 7
[17] = isoxadifen-ethyl 20 g/ha, Example 6
[18] = isoxadifen-ethyl 20 g/ha, Example 7
[19] = isoxadifen-ethyl 40 g/ha, Example 6
[20] = isoxadifen-ethyl 80 g/ha, Example 6

N#CCOC(=O)c1nc(-c2ccc3cc[nH]c3c2F)c(F)c(N)c1Cl [Compound A, cyanomethyl 4-amino-3-chloro-5-fluoro-6-(7-fluoro-1H-indol-6-yl)pyridine-2-carboxylate]
% visual injury, Ob ([1]; Compound A 20 g/ha): 60%
% visual injury, Ob ([2]; Compound A 20 g/ha): 95%
% visual injury, Ob ([3]; Compound A 20 g/ha): 30%
% visual injury, Ob ([4]; Compound A 20 g/ha, Example 1): 0%
% visual injury, Ob ([4]; Compound A 40 g/ha, Example 2): 17%
% visual injury, Ob ([5]; Compound A 10 g/ha): 73%
% visual injury, Ob ([5]; Compound A 20 g/ha): 93%
% visual injury, Ob ([6]; Compound A 20 g/ha): 90%
% visual injury, Ob ([7]; Compound A 10 g/ha, Example 7): 28%
% visual injury, Ob ([7]; Compound A 20 g/ha, Example 6): 30%
% visual injury, Ob ([7]; Compound A 20 g/ha, Example 7): 40%
% visual injury, Ob ([8]; Compound A 10 g/ha): 100%
% visual injury, Ob ([8]; Compound A 20 g/ha): 100%
% visual injury, Ob ([9]; Compound A 10 g/ha, Example 7): 85%
% visual injury, Ob ([9]; Compound A 20 g/ha, Example 6): 65%
% visual injury, Ob ([9]; Compound A 20 g/ha, Example 7): 95%
% visual injury, Ob ([10]; Compound A 20 g/ha): 60%
% visual injury, Ob ([11]; Compound A 40 g/ha): 50%
% visual injury, Ob ([12]; Compound A 20 g/ha): 100%
% visual injury, Ob (Avena fatua (wild oat); Compound A 20 g/ha): 0%
% visual injury, Ob (Zea mays (maize); Compound A 10 g/ha, Example 7): 48%
% visual injury, Ob (Zea mays (maize); Compound A 20 g/ha, Example 6): 13%
% visual injury, Ob (Zea mays (maize); Compound A 20 g/ha, Example 7): 60%
% visual injury, Ob (Zea mays (maize); Compound A 40 g/ha, Example 5): 55%
% visual injury, Ob ([13]; Compound A 20 g/ha): 50%
% visual injury, Ob ([14]; Compound A 10 g/ha, Example 7): 100%
% visual injury, Ob ([14]; Compound A 20 g/ha, Example 6): 85%
% visual injury, Ob ([14]; Compound A 20 g/ha, Example 7): 100%
% visual injury, Ob ([15]; Compound A 5 g/ha): 18%
% visual injury, Ob ([15]; Compound A 10 g/ha): 48%
% visual injury, Ob ([15]; Compound A 20 g/ha): 55%
% visual injury, Ob ([15]; Compound A 40 g/ha): 60%

CCOC(=O)C1=NOC(c2ccccc2)(c2ccccc2)C1 [Isoxadifen-ethyl, isoxadifen-ethyl]
% visual injury, Ob ([1]; isoxadifen-ethyl 20 g/ha): 0%
% visual injury, Ob ([1]; isoxadifen-ethyl 40 g/ha): 0%
% visual injury, Ob ([1]; isoxadifen-ethyl 80 g/ha): 0%
% visual injury, Ob ([2]; isoxadifen-ethyl 20 g/ha): 0%
% visual injury, Ob ([2]; isoxadifen-ethyl 40 g/ha): 0%
% visual injury, Ob ([2]; isoxadifen-ethyl 80 g/ha): 0%
% visual injury, Ob ([3]; isoxadifen-ethyl 20 g/ha): 0%
% visual injury, Ob ([3]; isoxadifen-ethyl 40 g/ha): 0%
% visual injury, Ob ([3]; isoxadifen-ethyl 80 g/ha): 0%
% visual injury, Ob ([4]; isoxadifen-ethyl 10 g/ha, Example 1): 0%
% visual injury, Ob ([4]; isoxadifen-ethyl 20 g/ha, Example 1): 0%
% visual injury, Ob ([4]; isoxadifen-ethyl 20 g/ha, Example 2): 0%
% visual injury, Ob ([4]; isoxadifen-ethyl 40 g/ha, Example 1): 0%
% visual injury, Ob ([4]; isoxadifen-ethyl 40 g/ha, Example 2): 0%
% visual injury, Ob ([4]; isoxadifen-ethyl 80 g/ha, Example 2): 0%
% visual injury, Ob ([4]; isoxadifen-ethyl 120 g/ha, Example 2): 0%
% visual injury, Ob ([5]; isoxadifen-ethyl 10 g/ha): 0%
% visual injury, Ob ([5]; isoxadifen-ethyl 20 g/ha): 0%
% visual injury, Ob ([6]; isoxadifen-ethyl 20 g/ha): 0%
% visual injury, Ob ([6]; isoxadifen-ethyl 40 g/ha): 0%
% visual injury, Ob ([6]; isoxadifen-ethyl 80 g/ha): 0%
% visual injury, Ob [7, 16]: 0%
% visual injury, Ob [7, 17]: 0%
% visual injury, Ob [7, 18]: 0%
% visual injury, Ob [7, 19]: 0%
% visual injury, Ob [7, 20]: 0%
% visual injury, Ob ([8]; isoxadifen-ethyl 10 g/ha): 0%
% visual injury, Ob ([8]; isoxadifen-ethyl 20 g/ha): 0%
% visual injury, Ob [9, 16]: 0%
% visual injury, Ob [9, 17]: 0%
% visual injury, Ob [9, 18]: 0%
% visual injury, Ob [9, 19]: 0%
% visual injury, Ob [9, 20]: 0%
% visual injury, Ob ([10]; isoxadifen-ethyl 10 g/ha): 0%
% visual injury, Ob ([10]; isoxadifen-ethyl 20 g/ha): 0%
% visual injury, Ob ([10]; isoxadifen-ethyl 40 g/ha): 0%
% visual injury, Ob ([11]; isoxadifen-ethyl 20 g/ha): 0%
% visual injury, Ob ([11]; isoxadifen-ethyl 40 g/ha): 0%
% visual injury, Ob ([11]; isoxadifen-ethyl 80 g/ha): 0%
% visual injury, Ob ([11]; isoxadifen-ethyl 120 g/ha): 0%
% visual injury, Ob ([12]; isoxadifen-ethyl 20 g/ha): 0%
% visual injury, Ob ([12]; isoxadifen-ethyl 40 g/ha): 0%
% visual injury, Ob ([12]; isoxadifen-ethyl 80 g/ha): 0%
% visual injury, Ob (Avena fatua (wild oat); isoxadifen-ethyl 20 g/ha): 0%
% visual injury, Ob (Avena fatua (wild oat); isoxadifen-ethyl 40 g/ha): 0%
% visual injury, Ob (Avena fatua (wild oat); isoxadifen-ethyl 80 g/ha): 0%
% visual injury, Ob (Zea mays (maize); [16]): 0%
% visual injury, Ob (Zea mays (maize); isoxadifen-ethyl 20 g/ha, Example 5): 0%
% visual injury, Ob (Zea mays (maize); [17]): 0%
% visual injury, Ob (Zea mays (maize); [18]): 0%
% visual injury, Ob (Zea mays (maize); isoxadifen-ethyl 40 g/ha, Example 5): 0%
% visual injury, Ob (Zea mays (maize); [19]): 0%
% visual injury, Ob (Zea mays (maize); isoxadifen-ethyl 80 g/ha, Example 5): 0%
% visual injury, Ob (Zea mays (maize); [20]): 0%
% visual injury, Ob (Zea mays (maize); isoxadifen-ethyl 120 g/ha, Example 5): 0%
% visual injury, Ob ([13]; isoxadifen-ethyl 10 g/ha): 0%
% visual injury, Ob ([13]; isoxadifen-ethyl 20 g/ha): 0%
% visual injury, Ob ([13]; isoxadifen-ethyl 40 g/ha): 0%
% visual injury, Ob [14, 16]: 0%
% visual injury, Ob [14, 17]: 0%
% visual injury, Ob [14, 18]: 0%
% visual injury, Ob [14, 19]: 0%
% visual injury, Ob [14, 20]: 0%
% visual injury, Ob ([15]; isoxadifen-ethyl 10 g/ha): 0%
% visual injury, Ob ([15]; isoxadifen-ethyl 20 g/ha): 0%
% visual injury, Ob ([15]; isoxadifen-ethyl 40 g/ha): 0%
% visual injury, Ob ([15]; isoxadifen-ethyl 80 g/ha): 0%
